# In publication PMC8348686, “The Pharmacological Profile of Second Generation Pyrovalerone Cathinones and Related Cathinone Derivative” (International Journal of Molecular Sciences, 2021):
# Key:
# adrenergic α1A receptor = biological target: T1, adrenergic α1A receptor (Homo sapiens, UniProt P35348); conditions: read-out: α1A Receptor Binding Ki ± SD; [3H]-Prazosin; ref Rickli et al. (2015); cited from earlier work
# T1 sequence (P35348 1-466): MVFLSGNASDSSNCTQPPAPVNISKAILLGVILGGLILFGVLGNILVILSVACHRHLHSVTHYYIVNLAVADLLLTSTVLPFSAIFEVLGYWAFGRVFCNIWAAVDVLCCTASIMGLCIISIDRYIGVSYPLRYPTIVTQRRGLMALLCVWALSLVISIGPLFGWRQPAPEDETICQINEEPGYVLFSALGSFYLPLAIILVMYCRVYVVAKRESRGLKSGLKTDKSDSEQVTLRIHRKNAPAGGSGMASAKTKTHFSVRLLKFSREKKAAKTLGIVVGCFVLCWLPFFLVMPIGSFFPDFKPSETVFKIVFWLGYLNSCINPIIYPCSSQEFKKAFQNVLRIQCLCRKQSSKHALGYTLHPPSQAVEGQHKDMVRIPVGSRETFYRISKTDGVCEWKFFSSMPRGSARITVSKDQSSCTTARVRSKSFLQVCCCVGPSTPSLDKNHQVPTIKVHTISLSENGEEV
# hNET [1] = biological target: T2, hNET (Homo sapiens, UniProt P23975); conditions: read-out: hNET Receptor Binding Ki ± SD; N-Methyl-[3H]-nisoxetine; ref Rickli et al. (2015); cited from earlier work
# hSERT = hSERT (Homo sapiens, UniProt P31645); test: Transporter-mediated monoamine efflux, [3H]-5-HT preloaded HEK293 cells; assay type: cell-based; design: expressed in transfected cells; host or cells: HEK293; conditions: 100 μM of drug, 15 min, HEK293 hSERT preloaded with [3H]-5-HT; data for some pyrovalerones adapted from [13]
# Experimental: (§1) Monoamine efflux was assessed using human embryonic kidney 293 (HEK293) cells (Invitrogen, Zug, Switzerland) stably transfected with the human norepinephrine (hNET), dopamine (hDAT), or serotonin (hSERT) uptake transporters. In summary, the cells were seeded in poly-D-lysine coated XF24 cell culture microplates (Seahorse Biosciences, North Billerica, MA, USA) and cultured overnight at a concentration of 100,000 cells per well.
# (§2) The cells were then exposed to Krebs–HEPES release buffer (85 μL/well) comprised of 130 mM NaCl, 1.3 mM KCl, 2.2 mM CaCl2, 1.2 mM MgSO4, 1.2 mM KH2PO4, 10 mM HEPES, and 10 mM D-glucose at a pH of 7.5, which also contained 10 nM radiolabelled neurotransmitter ([^3H]-5-HT for SERT, [^3H]-DA for DAT or [^3H]-NE for NET), 1 μM unlabelled neurotransmitter (DA or NE, only), 10 μM pargyline, and 0.2 mg/mL of ascorbic acid. This enabled the loading of the cells with their respective neurotransmitters via the uptake transporters. Afterwards, the release buffer was replaced by fresh buffer to wash the cells twice and the cells were then incubated for 15 min (DAT and SERT) or 45 min (NET) to 100 μM of test drugs dissolved in 1 mL of Krebs–HEPES buffer while shaking at 300 rpm and 37 °C. Termination of the release reaction occurred by removing the buffer from the cells and washing them with ice-cold buffer. Next, 50 μL of lysis buffer was added to the cells for 1 h in order to lyse the cells. Thereafter, 40 μL of the lysed cell mixture was transferred into scintillation vials (Perkin–Elmer, Schwerzenbach, Switzerland) containing 3 mL of scintillation fluid (Ultimagold, Perkin–Elmer, Schwerzenbach, Switzerland) and measured using liquid scintillation (as previously described in Section 2.2).
# (§3) To quantify the “pseudo efflux” caused by the non-transporter mediated monoamine release and successive reuptake inhibition, each monoamine efflux experiment included a control where the cells were exposed to each respective transporter blocker (nisoxetine for NET, mazindol for DAT, and citalopram for SERT). The radioactivity inside the cells without any drug was set as 100%. The nonspecific release was subtracted from the total observed release at 100 μM of each examined drug to calculate the specific transporter mediated release. One single concentration of the test drugs was used (100 μM) and release exposure durations were set based on previously evaluated kinetics of the release-over-time curves.
# (§4) An ANOVA followed by a Holm–Sidak test was conducted to compare each drug’s specific transporter-mediated efflux based on at least three independent experiments to the control condition.
# Rat TAAR1 = conditions: [3H]-RO5166017, ref Rickli et al. (2015), cited from earlier work
# hDAT = hDAT (Homo sapiens, UniProt Q01959); test: Transporter-mediated monoamine efflux, [3H]-DA preloaded HEK293 cells; assay type: cell-based; design: expressed in transfected cells; host or cells: HEK293; conditions: 100 μM of drug, 15 min, HEK293 hDAT preloaded with [3H]-DA; data for some pyrovalerones adapted from [13]
# Experimental: as §1, §2, §3, §4
# Mouse TAAR1 = conditions: [3H]-RO5166017; ref Rickli et al. (2015); read-out: Mouse TAAR1 Receptor Binding Ki ± SD; cited from earlier work
# adrenergic α2A receptor = biological target: T3, adrenergic α2A receptor (Homo sapiens, UniProt P08913); conditions: read-out: α2A Receptor Binding Ki ± SD; [3H]-Rauwolscine; ref Rickli et al. (2015); cited from earlier work
# T3 sequence (P08913 1-465): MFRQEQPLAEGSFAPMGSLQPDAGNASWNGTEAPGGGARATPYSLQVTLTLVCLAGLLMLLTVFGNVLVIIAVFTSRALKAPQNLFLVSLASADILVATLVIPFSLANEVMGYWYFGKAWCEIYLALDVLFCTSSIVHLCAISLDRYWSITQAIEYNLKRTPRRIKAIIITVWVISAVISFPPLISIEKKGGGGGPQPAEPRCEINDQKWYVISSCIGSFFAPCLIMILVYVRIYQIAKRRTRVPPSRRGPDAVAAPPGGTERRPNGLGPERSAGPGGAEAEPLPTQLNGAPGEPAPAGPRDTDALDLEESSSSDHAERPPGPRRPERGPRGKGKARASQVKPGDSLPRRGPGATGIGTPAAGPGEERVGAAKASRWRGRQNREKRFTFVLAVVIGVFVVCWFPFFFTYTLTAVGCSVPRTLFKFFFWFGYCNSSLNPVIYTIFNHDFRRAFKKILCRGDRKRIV
# hNET [2] = biological target: T2, hNET; test: Transporter-mediated monoamine efflux, [3H]-NE preloaded HEK293 cells; assay type: cell-based; design: expressed in transfected cells; host or cells: HEK293; conditions: 100 μM of drug, 45 min, HEK293 hNET preloaded with [3H]-NE; data for some pyrovalerones adapted from [13]
# Experimental: as §1, §2, §3, §4
# dopaminergic D2 receptor = dopaminergic D2 receptor (Homo sapiens, UniProt P14416); conditions: read-out: D2 Receptor Binding Ki ± SD; [3H]-Spiperone; ref Rickli et al. (2015); cited from earlier work
# Chain of dopaminergic D2 receptor (P14416 whole entry): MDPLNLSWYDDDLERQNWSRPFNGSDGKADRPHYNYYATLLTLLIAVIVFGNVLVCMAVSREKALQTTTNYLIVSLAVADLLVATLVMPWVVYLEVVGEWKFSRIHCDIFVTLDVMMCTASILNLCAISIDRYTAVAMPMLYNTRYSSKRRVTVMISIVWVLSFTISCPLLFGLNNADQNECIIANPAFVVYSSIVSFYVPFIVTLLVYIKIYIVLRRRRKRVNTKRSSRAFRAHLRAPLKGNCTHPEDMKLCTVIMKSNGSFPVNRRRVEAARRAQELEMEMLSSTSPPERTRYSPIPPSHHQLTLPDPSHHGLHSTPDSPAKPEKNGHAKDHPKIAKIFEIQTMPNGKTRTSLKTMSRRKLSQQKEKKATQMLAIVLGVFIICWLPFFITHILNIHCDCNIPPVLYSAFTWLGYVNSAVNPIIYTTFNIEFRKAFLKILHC
# T2 sequence (P23975 whole entry): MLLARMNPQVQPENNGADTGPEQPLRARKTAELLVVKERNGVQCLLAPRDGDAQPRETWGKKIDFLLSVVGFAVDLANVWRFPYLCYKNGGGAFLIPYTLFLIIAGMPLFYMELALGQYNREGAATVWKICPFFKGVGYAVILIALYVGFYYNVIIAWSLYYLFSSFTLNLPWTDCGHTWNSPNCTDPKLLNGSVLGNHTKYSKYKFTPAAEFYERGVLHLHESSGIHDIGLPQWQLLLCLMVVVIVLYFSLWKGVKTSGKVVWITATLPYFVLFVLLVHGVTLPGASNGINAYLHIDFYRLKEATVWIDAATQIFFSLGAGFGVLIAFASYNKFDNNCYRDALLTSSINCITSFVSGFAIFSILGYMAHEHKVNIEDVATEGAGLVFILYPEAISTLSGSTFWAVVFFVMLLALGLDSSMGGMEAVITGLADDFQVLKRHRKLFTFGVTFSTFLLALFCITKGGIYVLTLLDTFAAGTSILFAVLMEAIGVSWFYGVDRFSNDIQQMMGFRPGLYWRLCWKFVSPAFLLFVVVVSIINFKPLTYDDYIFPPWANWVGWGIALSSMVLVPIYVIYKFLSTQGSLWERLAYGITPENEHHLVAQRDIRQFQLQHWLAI
# Chain of hSERT (P31645 whole entry): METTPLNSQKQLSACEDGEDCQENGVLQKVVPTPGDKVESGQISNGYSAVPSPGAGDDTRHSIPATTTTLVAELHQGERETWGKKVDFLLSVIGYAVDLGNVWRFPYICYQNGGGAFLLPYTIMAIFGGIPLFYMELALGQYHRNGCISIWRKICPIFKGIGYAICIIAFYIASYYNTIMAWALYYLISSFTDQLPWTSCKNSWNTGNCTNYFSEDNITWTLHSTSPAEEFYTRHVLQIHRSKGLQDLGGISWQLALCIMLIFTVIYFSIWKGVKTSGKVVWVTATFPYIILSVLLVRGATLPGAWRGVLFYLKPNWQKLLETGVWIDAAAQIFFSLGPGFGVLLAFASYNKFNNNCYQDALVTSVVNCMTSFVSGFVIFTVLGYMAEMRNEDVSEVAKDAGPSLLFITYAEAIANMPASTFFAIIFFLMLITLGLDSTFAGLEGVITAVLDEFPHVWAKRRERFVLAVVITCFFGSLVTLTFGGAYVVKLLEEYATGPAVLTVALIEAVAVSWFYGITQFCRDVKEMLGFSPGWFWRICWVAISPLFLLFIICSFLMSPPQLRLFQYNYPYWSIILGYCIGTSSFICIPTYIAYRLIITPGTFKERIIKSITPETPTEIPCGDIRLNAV
# Chain of hDAT (Q01959 whole entry): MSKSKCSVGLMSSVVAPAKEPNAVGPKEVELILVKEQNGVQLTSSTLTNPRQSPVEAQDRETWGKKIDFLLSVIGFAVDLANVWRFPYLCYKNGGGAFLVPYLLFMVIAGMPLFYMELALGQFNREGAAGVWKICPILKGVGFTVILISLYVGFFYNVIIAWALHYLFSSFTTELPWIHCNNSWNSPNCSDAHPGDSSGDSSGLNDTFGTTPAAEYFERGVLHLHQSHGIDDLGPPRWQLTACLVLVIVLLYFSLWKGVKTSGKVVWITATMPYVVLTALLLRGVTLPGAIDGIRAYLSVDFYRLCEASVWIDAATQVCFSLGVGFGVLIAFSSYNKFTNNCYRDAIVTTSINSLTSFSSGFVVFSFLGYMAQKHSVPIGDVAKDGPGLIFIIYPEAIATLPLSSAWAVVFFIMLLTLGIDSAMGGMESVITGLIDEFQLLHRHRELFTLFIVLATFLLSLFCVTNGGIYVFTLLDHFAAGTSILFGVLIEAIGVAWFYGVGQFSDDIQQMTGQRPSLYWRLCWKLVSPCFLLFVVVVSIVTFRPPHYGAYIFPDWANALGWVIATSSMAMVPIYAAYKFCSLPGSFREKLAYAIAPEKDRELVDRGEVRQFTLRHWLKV
compound,measurement,setting,value
"CCCC(C(=O)c1ccccc1)N1CCCC1 (stereo not drawn) [α-PVP, α-pyrrolidinopentiophenone]",Ki,adrenergic α1A receptor,> 15 µM
same,Ki,hNET [1],0.06 ± 0.02 µM
same,Transporter-mediated monoamine efflux (5-HT) vs citalopram,hSERT,did not induce any monoamine efflux
same,Rat TAAR1 Receptor Binding Ki ± SD,Rat TAAR1,bound the rat TAAR1
same,Ki,Rat TAAR1; read-out: Rat TAAR1 Receptor Binding Ki ± SD,16 ± 6.4 µM
same,Transporter-mediated monoamine efflux (DA) vs mazindol,hDAT,did not induce any monoamine efflux
same,Ki,Mouse TAAR1,> 20 µM
same,Ki,adrenergic α2A receptor,> 20 µM
same,Transporter-mediated monoamine efflux (NE) vs nisoxetine,hNET [2],did not induce any monoamine efflux
same,Ki,dopaminergic D2 receptor,> 10 µM
